The structures appear in SMILES notation.

As a reminder, the pKa is the negative logarithm of the acid dissociation constant.

Data set [1] relates to carbonic anhydrase. The experiment in a line: Carbonic anhydrase activity before and after zinc addition, bicine/cresol red CO2 hydration assay. The note with it: for fold improvement: activity with 3.5 mM zinc salt versus assay sample without zinc; for Activity (U/mL): zinc deficient enzyme sample incubated with 3.5 mM zinc salt overnight at room temperature. Format: biochemical, microbial origin. The protocol: A solution containing 25 mM bicine and 123 micromolar (0.05 g/L) cresol-red (pH 8.3) is prepared as the assay reagent. The assay substrate is prepared at room temperature by bubbling CO2 gas into either a 125 mL Erlenmeyer flask containing 100 mL deionized H2O (dH2O) or a 50 ml plastic conical tube containing 30 mL dH2O. Bubbling proceeds for at least 10 minutes to yield a saturated CO2(aq) solution ([CO2]˜30 mM (Kernohan, J. C. 1965. Biochim. Biophys. Acta 96: 304). Carbonic anhydrase test samples are diluted for the assay using the assay reagent as diluent. A set of assay samples, made by 5- or 6-×0.7-fold serial dilutions of the enzyme test sample, are loaded onto a 96-well microtiter plate. Eight replicate wells each containing 100 microliters of each dilution are plated. Corresponding blank wells are loaded on the same plate in alternating columns with the assay sample wells. Blank wells contain either assay reagent alone or a 5- or 6-×0.7-fold serial dilution set of a modified enzyme test sample, where the modification involves removing or inactivating the active enzyme of the test sample.
The plate is inserted into a temperature controlled plate reader equipped with a liquid dispenser unit with the inject head immersed in the aqueous CO2 substrate solution. Initial absorbance of a single well is collected, followed by injection of 100 microliters of aqueous CO2 substrate into a single well and kinetic absorbance reads are collected at fixed time intervals (e.g., every 0.5 seconds) for that well such that the rate of absorbance change can be measured and used to indicate the rate of CO2 hydration. After approximately 5-10 seconds the reaction is no longer monitored and the process is repeated for all subsequent wells. Data automatically collected on the instrument is saved or exported in Microsoft Excel file format and copy/pasted into the Microsoft Excel automated data processing template. The data collected for each well is automatically checked for a linear slope (change in absorbance with change in time) within a selected “assay window” indicating the enzyme in that well was saturated with substrate during the assay window. The assay window is a sub-set of data points collected between selected time points for each well. The assay window for all wells in this example are the same. The slope of the data collected from an individual well assay window is called the “assay slope.” Wells passing the “linearity test” are averaged for a particular dilution to determine the “average assay slope” for that particular dilution. Next, a T-test between blank and assay sample replicates determines the probability that the differences between the two data sets could arise by chance, improving data quality by ensuring that data from an excessively diluted assay sample are not included in calculations of enzyme activity. If at least 3 dilution sets pass the T-test (T-test value <0.05), and at least 4 out of 8 replicate wells for those dilutions pass the “linearity test,” the average assay slope (change in absorbance per unit time) for each accepted dilution is plotted versus the amount of enzyme present in that dilution. […]
Carbonic anhydrase activity improvement was evaluated by measuring enzyme activity before and after zinc addition according to the method of Example 1. […]

The test system of data set [2] is carbonic anhydrase. The experiment in a line: Effect of salt on carbonic anhydrase activity, 50 mM bicine/cresol red assay. The note with it: form of the enzyme that precipitates in the absence of salt. Format: biochemical. As for the experimental part:
The measurement of CO2 absorption enhancement by carbonic anhydrase was performed as described in Example 1 except the assay reagent contains 50 mM bicine at pH 8.65+/−0.05. This embodiment of the assay reagent delays the assay response relative to Example 1. Such a delay expands the “assay window” (from 5.1 to 6.7 seconds, inclusive, in Example 1; to 6.8 to 9.9 seconds, inclusive), and permits analysis of more data points.
When required, such as for stability of certain forms of carbonic anhydrase, additional compounds, such as salts, for example sodium chloride, can be added to the assay reagent. This embodiment of the assay reagent leads to an improved measure of carbonic anhydrase activity for forms of the enzyme which, in the absence of salt, may aggregate, precipitate, or otherwise change their form and alter the result in the assay measurement of CO2 absorption enhancement. The required concentration of salt is expected to be enzyme dependent, and the assay can be used to determine the optimal salt concentration required for optimal enzyme activity determination.
FIG. 3 presents the effect of salt concentration on the determination of carbonic anhydrase activity for a form of the enzyme that precipitates in the absence of salt.

The conditions of data set [3]: cited from earlier work.
For data set [4] the following is noted: compared to other indicators with similar pKas, such as phenol red; cited from earlier work.

`[Cl-].[Cl-].[Zn+2]` [ZnCl2]: in the data set on carbonic anhydrase [1], the fold improvement is on record as 9 (ZnCl2) fold and the “Activity (U/mL)” value is 5800 (ZnCl2) U/mL.

As for `[Cl-].[Na+]` [NaCl, sodium chloride], the “effect of salt addition on activity of a carbonic anhydrase test sample” value in the data set on carbonic anhydrase [2] is “improve the activity”.

As to `O.O.O.O.O.O.O.O=S(=O)([O-])[O-].[Zn+2]` [ZnSO4 × 7H2O, ZnSO4×7 H2O], in the data set with carbonic anhydrase [1], the fold improvement is listed as 10 (ZnSO4 × 7H2O) fold and the “Activity (U/mL)” value is reported as 6400 (ZnSO4 × 7H2O) U/mL.

Regarding `[Zn]` [zinc], the fold improvement result in the data set on carbonic anhydrase [1] is listed as “around 10 fold”.

Regarding `Cc1cc(C2(c3ccc(O)c(C)c3)OS(=O)(=O)c3ccccc32)ccc1O` [cresol red, o-Cresolsulfonephthalein], in data set [3], the pKa is on record as 8.32. The water solubility entry in data set [4] is reported as “relatively high water solubility”.

For the compound `CCC1(CC)C(=O)NC(=O)NC1=O` [Veronal], the pKa in data set [3] is given as 8.0.

`NC(CO)(CO)CO` [Tris]: the pKa in data set [3] is reported as 8.0.

These data come from patent US20160010142A1, “Compositions and Methods For Analysis of C02 Absorption” (NOVOZYMES NORTH AMERICA, INC., priority 2013, published 2016).
